Source: patent US11274129B2, “Methods for protein tyrosine phosphorylation profiling with variant SH2 domains” (priority 2016, dated 2022)

Tests used:
[1] = test system: mixture of 54 different pTyr-including peptides derived from 54 TK activation loops; assay: Capture of pTyr-including peptides from a mixture of TK activation loop peptides, scheduled PRM; format: binding
Procedure: Equal molar amounts (10 nmole) of the wild-type (wt) human Src SH2 domain and the DM and TrM human Src SH2 Superbinders (SEQ ID NO: 14 and 5, respectively) expressed with His6 and GST tags were used to capture pTyr-including peptides from a mixture of 54 different pTyr-including peptides (10 pmole each) derived from 54 TK activation loops. The isolated peptides were identified by PRM and quantified based on the corresponding MS peak area. 1.8% of the eluted peptides were injected into a Q-Exactive (Thermo Fisher) preceded with a nano-LC system.
Shown are the amounts of pTyr-including peptides captured, based on the corresponding peak area of PRM signal, by each of the parent human Src SH2 domain and the DM and TrM human Src SH2 Superbinders.

[2] = target: VEGFR1-pTyr^1213 peptide DVRpYVNAAKF; settings: peptide VEGFR1-pTyr^1213 DVRpYVNAAKF; read-out: equilibrium dissociation constant (Kd); cited from earlier work
[3] = target: EGFR-pTyr^978 peptide PQRpYLVIQGD; settings: peptide EGFR-pTyr^978 PQRpYLVIQGD; read-out: equilibrium dissociation constant (Kd); cited from earlier work
[4] = target: EGFR-pTyr^1110 peptide NPVpYHNQPLN; settings: peptide EGFR-pTyr^1110 NPVpYHNQPLN; read-out: equilibrium dissociation constant (Kd); cited from earlier work
[5] = target: MidT-pTyr^324 peptide EPQpYEEIPIYL; settings: peptide MidT-pTyr^324 EPQpYEEIPIYL; read-out: equilibrium dissociation constant (Kd); cited from earlier work
[6] = target: RSKL-pTyr^423 peptide YQHpYDLDLKD; settings: peptide RSKL-pTyr^423 YQHpYDLDLKD; read-out: equilibrium dissociation constant (Kd); cited from earlier work
[7] = target: ShcA-pTyr^239 peptide DHQpYYNDFPG; settings: peptide ShcA-pTyr^239 DHQpYYNDFPG; read-out: equilibrium dissociation constant (Kd); cited from earlier work
[8] = target: ShcA-pTyr^317 peptide DPSpYVNVQNL; settings: peptide ShcA-pTyr^317 DPSpYVNVQNL; read-out: equilibrium dissociation constant (Kd); cited from earlier work
[9] = target: Designed peptide GGpYGG; settings: read-out: equilibrium dissociation constant (Kd); cited from earlier work

Substance: Thr8Val/Cys10Ala: double-mutant human Src SH2 domain
- number of the 54 pTyr-including peptides captured / detected by PRM ([1]; 10 nmole SH2 domain, 10 pmole each peptide): 32
- PRM signal peak area ([1]; BLK (pTyr389) IIDSEpYTAQEGAK, fragment ion b2): 0
- PRM signal peak area ([1]; BMX (pTyr566) YVLDDQpYVSSVGTK, fragment ion b2): 0
- PRM signal peak area ([1]; BTK (pTyr551) YVLDDEpYTSSVGSK, fragment ion b2): 18,246
- PRM signal peak area ([1]; DDR1 (pTyr796/797) NLYAGDpYpYR, fragment ion b2): 43,173
- PRM signal peak area ([1]; DDR2 (pTyr740/741) NLYSGDpYpYR, fragment ion y6): 16,232
- PRM signal peak area ([1]; EPHA1 (pTyr781) LLDDFDGTpYETQGGK, fragment ion y9): 12,335
- PRM signal peak area ([1]; EPHA2 (pTyr772) VLEDDPEATpYTTSGGK, fragment ion y11): 4,858
- PRM signal peak area ([1]; EPHA3 (pTyr779) VLEDDPEAApYTTR, fragment ion y8): 0
- PRM signal peak area ([1]; EPHA6 (pTyr830) VLEDDPEAApYTTTGGK, fragment ion b2): 51,066
- PRM signal peak area ([1]; EPHA8 (pTyr793) VLEDDPDAApYTTTGGK, fragment ion y11): 57,102
- PRM signal peak area ([1]; EPHB1 (pTyr778) YLQDDTSDPTpYTSSLGGK, fragment ion y10): 0
- PRM signal peak area ([1]; EPHB2 (pTyr780) FLEDDTSDPTpYTSALGGK, fragment ion Y3): 98,045
- PRM signal peak area ([1]; EPHB3 (pTyr792) FLEDDPSDPTpYTSSLGGK, fragment ion y10): 14,654
- PRM signal peak area ([1]; EPHB4 (pTyr774) FLEENSSDPTpYTSSLGGK, fragment ion y10): 0
- PRM signal peak area ([1]; ERBB2 (pTyr877) LLDIDETEpYHADGGK, fragment ion b3): 4,642
- PRM signal peak area ([1]; ERBB3 (pTyr866) QLLpYSEAK, fragment ion y2): 151,587
- PRM signal peak area ([1]; FER (pTyr714) QEDGGVpYSSSGLK, fragment ion y7): 0
- PRM signal peak area ([1]; FES (pTyr713) EEADGVpYAASGGLR, fragment ion y8): 0
- PRM signal peak area ([1]; FGFR1 (pTyr653/654) DIHHIDpYpYK, fragment ion b6): 28,967
- PRM signal peak area ([1]; FGFR2 (pTyr656/657) DINNIDpYpYK, fragment ion y4): 39,469
- PRM signal peak area ([1]; FGFR3 (pTyr647/648) DVHNLDpYpYK, fragment ion b3): 64,641
- PRM signal peak area ([1]; FGFR4 (pTyr642/643) GVHHIDpYpYK, fragment ion b3): 29,983
- PRM signal peak area ([1]; FRK (pTyr387) VDNEDIpYESR, fragment ion y6): 0
- PRM signal peak area ([1]; GSK3 (pTyr279/216) GEPNVSpYICSR, fragment ion y6): 0
- PRM signal peak area ([1]; HCK (pTyr411) VIEDNEpYTAR, fragment ion b2): 0
- PRM signal peak area ([1]; INSRR (pTyr1145/1146) DVYETDpYpYR, fragment ion y5): 7,794
- PRM signal peak area ([1]; ITK (pTyr512) FVLDDQpYTSSTGTK, fragment ion y11): 0
- PRM signal peak area ([1]; JAK1 (pTyr1034/1035) EpYpYTVK, fragment ion y2): 46,193
- PRM signal peak area ([1]; JAK2 (pTyr221) IQDpYHILTR, fragment ion Y3): 39,232
- PRM signal peak area ([1]; JAK3 (pTyr980/981) DpYpYVVR, fragment ion y2): 10,521
- PRM signal peak area ([1]; KIT (pTyr823) NDSNpYVVK, fragment ion b2): 0
- PRM signal peak area ([1]; LMTK2 (pTyr295) EDpYIETDDK, fragment ion b2): 1,124
- PRM signal peak area ([1]; LMTK3 (pTyr296/297) EDpYpYLTPER, fragment ion y3): 78,610
- PRM signal peak area ([1]; MERTK (pTyr753/754) IYSGDpYpYR, fragment ion b2): 0
- PRM signal peak area ([1]; MET (pTyr1234/1235) EpYpYSVHNK, fragment ion y2): 70,811
- PRM signal peak area ([1]; MUSK (pTyr755/756) NIYSADpYpYK, fragment ion y2): 0
- PRM signal peak area ([1]; NTRK1 (pTyr680/681) DIYSTDpYpYR, fragment ion b2): 30,204
- PRM signal peak area ([1]; NTRK2 (pTyr706/707) DVYSTDpYpYR, fragment ion y4): 22,794
- PRM signal peak area ([1]; PGFRB (pTyr857) DSNpYISK, fragment ion y2): 0
- PRM signal peak area ([1]; PTK7 (pTyr960/961) DVYNSEpYpYHFR, fragment ion b2): 4,843
- PRM signal peak area ([1]; RET (pTyr905) DVYEEDSpYVK, fragment ion b2): 0
- PRM signal peak area ([1]; RON (pTyr1238/1239) EpYpYSVQQHR, fragment ion y4): 17,370
- PRM signal peak area ([1]; ROR1 (pTyr645/646) EIYSADpYpYR, fragment ion y6): 27,661
- PRM signal peak area ([1]; ROR2 (pTyr645/646) EVYAADpYpYK, fragment ion y5): 60,460
- PRM signal peak area ([1]; SRC (pTyr419) LIEDNEpYTAR, fragment ion b2): 0
- PRM signal peak area ([1]; SRMS (pTyr380) DDIpYSPSSSSK, fragment ion y8): 0
- PRM signal peak area ([1]; TEC (pTyr519) YVLDDQpYTSSSGAK, fragment ion b2): 4,818
- PRM signal peak area ([1]; TIE1 (pTyr1007) GEEVpYVK, fragment ion b2): 0
- PRM signal peak area ([1]; TIE2 (pTyr992) GQEVpYVK, fragment ion b2): 0
- PRM signal peak area ([1]; TXK (pTyr420) YVLDDEpYVSSFGAK, fragment ion b2): 46,128
- PRM signal peak area ([1]; TYK2 (pTyr1054/1055) AVPEGHEpYpYR, fragment ion y6): 9,679
- PRM signal peak area ([1]; VGFR1 (pTyr1053) NPDpYVR, fragment ion y3): 0
- PRM signal peak area ([1]; VGFR2 (pTyr1059) DPDpYVR, fragment ion Y3): 0
- Kd [2]: 1800 nM
- Kd [3]: 390 nM
- Kd [4]: 4500 nM
- Kd [5]: 27 nM
- Kd [6]: 900 nM
- Kd [7]: 100 nM
- Kd [8]: 390 nM
- Kd [9]: 25000 nM
